Reference: paper PMC6017745 (Molecules : A Journal of Synthetic Chemistry and Natural …, 2018)
“Also recorded” adds a separate entry of the source. Like-named read-outs stand apart in the source and are kept apart here. Values belong to the molecule of their own block, whether it stands above or below them.

Legend:
[1] = biological target: H3 receptor (Cavia porcellus, UniProt Q9JI35); experiment: H3 antagonistic activity against H3 agonist-induced inhibition of electrically evoked contraction of guinea-pig jejunum; settings: vs (R)-α-methylhistamine, Schild analysis; for pA2 (SEM) H3: guinea pig jejunum; for Kb: pA2 (SEM) H3, guinea pig jejunum
[2] = tested on: Lewis rats; experiment: Food consumption during subchronic administration to rats (metabolic cages); type: in vivo, rat; settings: s.c. 3 mg/kg/daily for five days
[3] = tested on: histamine concentration in rat brain; experiment: Post-mortem cerebral histamine concentration (ELISA); type: in vivo; settings: rats, s.c. 3 mg/kg/daily for five days
[4] = tested on: MAO-A; experiment: Post-mortem cerebral MAO-A activity (radioisotopic assay); type: in vivo, rat; settings: cerebral cortex, rats s.c. 3 mg/kg/daily for five days, means ± SEM
Description: (§1) Post-mortem brain analyses included estimation of the amine neurotransmitters concentrations as well as the activities of the degradative enzymes HNMT and MAO-A and MAO-B. The rats were sacrificed 24 h after the last injection. The brains were collected, separated into hypothalamus and the cerebral cortex according to the Glowinski and Iversen method, immediately frozen in liquid nitrogen and kept at −80 °C until assayed. […] For MAO-A serotonin (5-[2-^14C]-hydroxytryptamine binoxalate) and for MAO-B β-[ethyl-1-^14C]-phenylethylamine hydrochloride were used as substrates and respectively, clorgyline (MAO-A) and deprenyl (MAO-B) (final conc. 10^−9 M) as the enzymes inhibitors. Protein was measured by Lowry method.

[5] = tested on: MAO-B; experiment: Post-mortem cerebral MAO-B activity (radioisotopic assay); type: in vivo, rat; settings: cerebral cortex, rats s.c. 3 mg/kg/daily for five days, means ± SEM
Description: as §1

[6] = tested on: HNMT; experiment: Post-mortem cerebral HNMT activity (radioisotopic assay); type: in vivo, rat; settings: for HNMT activity CTX: cerebral cortex; for HNMT activity CTX / HNMT activity HTH: rats s.c. 3 mg/kg/daily for five days, means ± SEM; for HNMT activity HTH: hypothalamus
[7] = biological target: T1, rat histamine H3 receptor (rH3R) (Rattus norvegicus, UniProt Q9QYN8); settings: read-out: KD saturation binding at rH3R; HEK-293T membranes, two hours at 25 °C
[8] = biological target: human histamine H3 receptor (hH3R) (Homo sapiens, UniProt Q9Y5N1); settings: read-out: KD saturation binding at hH3R
[9] = biological target: T1, rat histamine H3 receptor (rH3R); experiment: biochemical
[10] = tested on: dopamine, noradrenaline and serotonin concentration in rat brain; experiment: Post-mortem cerebral concentration of biogenic amines DA, NA, 5-HT (RIA); type: in vivo; settings: rats
[11] = biological target: T2, H1 receptor (Cavia porcellus, UniProt P31389); set-up: The excised ileum was placed in phosphate buffer at room temperature; from tissue; host or cells: guinea pig ileum; settings: guinea pig ileum, NA = inactive, cited from earlier work
[12] = biological target: T2, H1 receptor; experiment: H1 antagonistic effects in vitro using the guinea pig ileum

H3 receptor, sequence (Q9JI35 whole entry): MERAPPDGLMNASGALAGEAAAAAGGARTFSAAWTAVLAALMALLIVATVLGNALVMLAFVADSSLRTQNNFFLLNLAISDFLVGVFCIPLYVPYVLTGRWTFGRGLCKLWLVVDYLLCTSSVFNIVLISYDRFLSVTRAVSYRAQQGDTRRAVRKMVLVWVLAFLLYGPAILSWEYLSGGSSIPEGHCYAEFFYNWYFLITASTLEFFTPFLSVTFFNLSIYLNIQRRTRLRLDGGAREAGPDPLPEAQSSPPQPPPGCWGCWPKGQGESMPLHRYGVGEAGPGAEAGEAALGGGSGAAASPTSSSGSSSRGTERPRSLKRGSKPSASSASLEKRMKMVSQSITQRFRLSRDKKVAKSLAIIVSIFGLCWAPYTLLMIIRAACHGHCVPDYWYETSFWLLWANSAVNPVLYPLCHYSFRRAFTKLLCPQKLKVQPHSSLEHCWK
T2 sequence (P31389 whole entry): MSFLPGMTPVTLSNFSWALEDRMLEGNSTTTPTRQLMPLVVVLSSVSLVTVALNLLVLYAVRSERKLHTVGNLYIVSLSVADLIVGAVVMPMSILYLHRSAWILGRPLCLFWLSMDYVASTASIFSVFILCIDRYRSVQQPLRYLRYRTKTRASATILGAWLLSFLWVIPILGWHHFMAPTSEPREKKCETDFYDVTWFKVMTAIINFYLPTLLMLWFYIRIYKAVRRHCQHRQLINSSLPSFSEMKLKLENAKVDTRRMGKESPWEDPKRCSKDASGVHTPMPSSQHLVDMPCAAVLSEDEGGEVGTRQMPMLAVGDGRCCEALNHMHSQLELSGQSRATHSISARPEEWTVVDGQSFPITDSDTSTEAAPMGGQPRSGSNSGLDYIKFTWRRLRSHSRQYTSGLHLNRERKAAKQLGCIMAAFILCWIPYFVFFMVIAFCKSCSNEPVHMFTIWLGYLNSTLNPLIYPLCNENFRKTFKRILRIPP
T1 sequence (Q9QYN8 whole entry): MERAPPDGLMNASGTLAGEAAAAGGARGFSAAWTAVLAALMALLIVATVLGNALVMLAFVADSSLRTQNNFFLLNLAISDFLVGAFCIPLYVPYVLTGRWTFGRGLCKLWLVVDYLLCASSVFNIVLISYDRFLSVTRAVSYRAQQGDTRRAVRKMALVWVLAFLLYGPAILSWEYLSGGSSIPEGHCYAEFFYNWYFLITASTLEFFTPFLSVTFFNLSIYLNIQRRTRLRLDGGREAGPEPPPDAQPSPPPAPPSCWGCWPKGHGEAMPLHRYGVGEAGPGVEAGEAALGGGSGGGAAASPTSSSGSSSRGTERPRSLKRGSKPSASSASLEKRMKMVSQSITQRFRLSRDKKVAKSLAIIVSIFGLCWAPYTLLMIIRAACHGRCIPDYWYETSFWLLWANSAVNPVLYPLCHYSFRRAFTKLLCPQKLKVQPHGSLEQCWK
human histamine H3 receptor (hH3R), sequence (Q9Y5N1 whole entry): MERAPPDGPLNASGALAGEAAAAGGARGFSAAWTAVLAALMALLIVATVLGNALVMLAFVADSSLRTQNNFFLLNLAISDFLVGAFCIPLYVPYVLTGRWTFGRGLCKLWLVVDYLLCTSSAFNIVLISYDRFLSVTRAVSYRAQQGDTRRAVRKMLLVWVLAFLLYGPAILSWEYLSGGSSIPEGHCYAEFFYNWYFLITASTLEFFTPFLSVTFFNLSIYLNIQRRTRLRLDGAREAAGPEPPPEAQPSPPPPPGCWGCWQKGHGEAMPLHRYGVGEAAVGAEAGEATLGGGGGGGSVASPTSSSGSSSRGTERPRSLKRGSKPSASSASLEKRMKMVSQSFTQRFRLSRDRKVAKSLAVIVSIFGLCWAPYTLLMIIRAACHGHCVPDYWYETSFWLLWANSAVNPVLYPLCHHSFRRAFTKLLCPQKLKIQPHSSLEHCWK

SMILES: O=C(c1ccc(OCCCc2cnc[nH]2)cc1)C1CC1 [Ciproxifan, ciproxifan, reference compound]
- effect on food intake [2]: caused a significant decrease in consumption
- histamine concentration in the hypothalamus ([3]; 3 mg/kg): tended to be higher than in the untreated controls; also recorded: significantly higher than in ADS-531 injected rats
- MAO-A activity CTX [4]: 1654 ± 31.42 pmol/min/mg protein
- MAO-B activity CTX [5]: 1049 ± 56.16 pmol/min/mg protein
- HNMT activity CTX [6]: 46.90 ± 3.59 pmol/min/mg protein
- HNMT activity HTH [6]: 44.68 ± 5.50 pmol/min/mg protein

SMILES: CNCCc1cnc[nH]1 [[^3H]-N^α-MH, [^3H]-N^α-methylhistamine]
- Kd [7]: 2.72 ± 0.34 nM
- Kd [8]: 0.9 ± 0.08 nM

SMILES: S=C(NC1CCCCC1)N1CCC(c2cnc[nH]2)CC1 [Thioperamide, thioperamide, reference compound]
- Ki [9]: 12.6 nM
- Kb [1]: 3.39 nM

SMILES: CCCN1CCN(c2ncc(CCN(C)CCCc3ccccc3)s2)CC1 [Compound 2c, N-methyl-N-3-phenylalkyl-2-[2-(4-n-propylpiperazin-1-yl)-1,3-thiazol-5-yl]ethan-1-amine]
- effect on food intake ([2]; listed as ADS-531, 3 mg/kg): did not affect histamine concentration nor feeding behavior; also recorded: did not influence the food intake
- cerebral histamine concentration ([3]; listed as ADS-531, 3 mg/kg): did not affect histamine concentration; also recorded: No significant changes
- brain penetration ([10]; s.c. 3 mg/kg, 5 days): penetrated the brain
- cerebral concentrations of dopamine, noradrenaline and serotonin ([10]; s.c. 3 mg/kg/daily for five days, listed as ADS-531, 3 mg/kg): affected dopamine, noradrenaline and serotonin concentration; also recorded: caused alterations in the concentrations of dopamine, noradrenaline, and serotonin; also recorded: increase of 5HT and NA level throughout the brain with the exception of the hypothalamus
- MAO-A activity CTX [4]: 1625 ± 49.99 pmol/min/mg protein
- MAO-B activity CTX [5]: 1044 ± 38.91 pmol/min/mg protein
- HNMT activity CTX [6]: 48.19 ± 0.47 pmol/min/mg protein
- HNMT activity HTH [6]: 37.58 ± 2.42 pmol/min/mg protein
- effect on enzyme activities related to histamine metabolism in the brain (HNMT, MAO-B pathway) ([6]; rats, s.c. 3 mg/kg/daily for five days): No significant changes
- pA2 (SEM) H1 [11]: did not possess any activity at H1
- pA2 (SEM) H1 ([11]; listed as ADS-531): did not exhibit any H1-antagonistic activity; also recorded: devoid of the antagonistic activity at the H1 receptor

Continued, values first:

- pA2 (SEM) H3 [1]: 7.91
- Kb [1]: 12.3 nM
SMILES: CCCN1CCN(c2ncc(CCCCN(C)CCCc3ccccc3)s2)CC1 [Compound 3f, N-Methyl-N-(3-phenylpropyl)-4-[2-(4-n-propylpiperazin-1-yl)-1,3-thiazol-5-yl]butan-1-amine]

- Kb [12]: 3160 nM
- pA2 (SEM) H3 [1]: 8.38
- Kb [1]: 4.17 nM
SMILES: CCCN1CCN(c2ncc(CCCN(C)Cc3ccccc3)s2)CC1 [Compound 3a, N-Benzyl-N-methyl-3-[2-(4-n-piperazin-1-yl)-1,3-thiazol-5-yl]propan-1-amine]

- Kb [1]: 10.7 nM
SMILES: CCCN1CCN(c2ncc(CCCCN(C)CCc3ccccc3)s2)CC1 [Compound 3e, N-Methyl-N-(2-phenylethyl)-4-[2-(4-n-propylpiperazin-1-yl)-1,3-thiazol-5-yl]butan-1-amine]

- pA2 (SEM) H3 [1]: 7.46
- Kb [1]: 34.7 nM
SMILES: CCCN1CCN(c2ncc(CCCN(C)CCCc3ccccc3)s2)CC1 [Compound 3c, N-Methyl-N-(3-phenylpropyl)-3-[2-(4-n-propylpropylpiperazin-1-yl)-1,3-thiazol-5-yl]-propan-1-amine]

- Kb [12]: 562 nM
- pA2 (SEM) H1 ([12]; guinea pig ileum, vs histamine): 6.25
- Kb [1]: 11.2 nM
SMILES: CCCN1CCN(c2ncc(CCCCN(C)Cc3ccccc3)s2)CC1 [Compound 3d, N-Benzyl-N-methyl-4-[2-(4-n-propylpiperazin-1-yl)-1,3-thiazol-5-yl]butan-1-amine]

- pA2 (SEM) H3 [1]: 7.81
- Kb [1]: 15.5 nM
SMILES: CCCN1CCN(c2ncc(CCCN(C)CCc3ccccc3)s2)CC1 [Compound 3b, N-Methyl-N-(2-phenylethyl)-3-[2-(4-n-propylpiperazin-1-yl)-1,3-thiazol-5-yl]propan-1-amine]
